Measurements from patent publication US20240216352A1 (priority 2022, published 2024).

System: healthy participants
Test: Phase 1 Part A single ascending dose (SAD) and FE/pH cohort: safety, blood pressure
Assay type: in vivo, human
Details: for Mean SBP: in mmHg (unit assumed); for Maximum of mean (±SD) reduction in DBP from baseline / Maximum of mean (±SD) reduction in SBP from baseline / Time of maximum mean DBP reduction / Time of maximum mean SBP reduction: within 12 h post dose
Method: The study was performed in 3 parts in 112 healthy male and female participants, including 24 Japanese participants. Female participants were to be not of childbearing potential. The present study was designed to evaluate the safety and tolerability, PK, and exploratory PD of an oral suspension of Compound A. Parts A and B (Cohort B1 only) enrolled healthy participants and was conducted at a site in The Netherlands and Part B (Cohort B2 to B5) enrolled healthy non-Japanese participants and was conducted at a site in the United Kingdom (UK). Part C enrolled healthy Japanese participants and was conducted at the same site in the UK.
Part A was an SAD study in a planned number of 6 sequential dose escalation cohorts (3, 10, 30, 100, 150, or 250 mg) of 8 healthy participants (6 active+2 placebo) each, under fasted conditions. Eligible participants in Part A (excluding those in Cohort A7 [food effect (FE)/pH cohort]) received a single administration of study drug (Compound A or placebo) under fasted conditions. In Cohort A1 to Cohort A6, sentinel dosing was employed (1 active+1 placebo, followed after 48 hours by the remaining participants of the cohort [5 active+1 placebo]). […] In addition to the 6 ascending dose cohorts, a cohort of 6 healthy participants (Cohort A7; 6 active, 100 mg Compound A) was included to assess the effect of food and pH on the bioavailability of Compound A in a 3-period, open-label, fixed-sequence, crossover design (FE/pH cohort).
Physical examinations, vital sign measurements (including orthostasis testing in Cohort A6, Cohort B3 to B5, and C1 to C3 at selected time points), 12-lead electrocardiogram (ECG), and clinical laboratory evaluations were performed at selected times throughout the study. In addition, Holter monitoring was performed for the first 24 hours post dose on Day 1 in Part A (not in FE/pH cohort), and also for the first 24 hours post dose on Day 1 and Day 14 in Parts B and C. Participants were closely monitored for adverse events (AEs). Blood samples were collected for up to 14 days (follow-up visit) after (last) study drug administration for PK analysis. In addition, blood and urine were collected for exploratory biomarker assessments and for biobanking of samples for potential analyses. Urine was collected for potential PK analysis for up to 96 hours after a single dose of Compound A or placebo was administered in the SAD part, and for up to 24 hours after the first (morning) dose of study drug on Day 1 and for up to 24 hours after the last (morning) dose of study drug on Day 14 in the MAD parts.

[1] = 100 mg Fasted + Famotidine, D 1 2 h
[2] = 100 mg Fasted + Famotidine, D 1 4 h
[3] = 100 mg Fasted + Famotidine, D 1 8 h
[4] = 100 mg Fasted + Famotidine, D 2 24 h
[5] = 100 mg fasted + famotidine (A7)

## CCCN(C)C(=O)OCc1c(-c2ccc(O[C@H]3CCC[C@H](C(=O)O)C3)c(C)n2)nnn1C [Compound A, (1S,3S)-3-((2-methyl-6-(1-methyl-5-(((methyl(propyl)carbamoyl)-oxy)methyl)-1H-1,2,3-triazol-4-yl)pyridin-3-yl)oxy)cyclohexane-1-carboxylic acid]
[1]
  Mean DBP: 67.2 mmHg
  Mean SBP: 111.3
[2]
  Mean DBP: 65.3 mmHg
  Mean SBP: 106.5
[3]
  Mean DBP: 63.2 mmHg
  Mean SBP: 105.0
[4]
  Mean DBP: 71.7 mmHg
  Mean SBP: 118.7
100 mg Fasted, D 1 2 h
  Mean DBP: 67.2 mmHg
  Mean SBP: 107.5
100 mg Fasted, D 1 4 h
  Mean DBP: 64.2 mmHg
  Mean SBP: 103.8
100 mg Fasted, D 1 8 h
  Mean DBP: 63 mmHg
  Mean SBP: 98.0
100 mg Fasted, D 2 24 h
  Mean DBP: 69.3 mmHg
  Mean SBP: 115.2
100 mg Fed, D 1 2 h
  Mean DBP: 57.2 mmHg
  Mean SBP: 100.5
100 mg Fed, D 1 4 h
  Mean DBP: 58.2 mmHg
  Mean SBP: 104.2
100 mg Fed, D 1 8 h
  Mean DBP: 58.8 mmHg
  Mean SBP: 100.3
100 mg Fed, D 2 24 h
  Mean DBP: 69.3 mmHg
  Mean SBP: 112.8
100 mg fasted (A7)
  Maximum of mean (±SD) reduction in DBP from baseline: 12.5 ± 7.06 mmHg
  Maximum of mean (±SD) reduction in SBP from baseline: 25.8 ± 9.54 mmHg
  Time of maximum mean DBP reduction: 5 h
  Time of maximum mean SBP reduction: 8 h
[5]
  Maximum of mean (±SD) reduction in DBP from baseline: 11.8 ± 8.40 mmHg
  Maximum of mean (±SD) reduction in SBP from baseline: 19.3 ± 17.41 mmHg
  Time of maximum mean DBP reduction: 6 h
  Time of maximum mean SBP reduction: 6 h
100 mg fed (A7)
  Maximum of mean (±SD) reduction in DBP from baseline: 12.7 ± 4.18 mmHg
  Maximum of mean (±SD) reduction in SBP from baseline: 18.5 ± 12.94 mmHg
  Time of maximum mean DBP reduction: 5 h
  Time of maximum mean SBP reduction: 6 h
Cohort A6, 250 mg single dose, 2 sentinel participants dosed
  Dose-limiting events: dose-limiting events observed in a sentinel participant
SAD 3 mg (A1)
  Maximum of mean (±SD) reduction in SBP from baseline: 5.2 ± 3.43 mmHg
  Time of maximum mean SBP reduction: 2 h
SAD 3 mg, D 1 2 h
  Mean DBP: 68.3 mmHg
  Mean SBP: 119.5
SAD 3 mg, D 1 4 h
  Mean DBP: 69.5 mmHg
  Mean SBP: 120.3
SAD 3 mg, D 1 8 h
  Mean DBP: 68 mmHg
  Mean SBP: 124.5
SAD 3 mg, D 2 24 h
  Mean DBP: 68.7 mmHg
  Mean SBP: 118.8
SAD 10 mg (A2)
  Maximum of mean (±SD) reduction in DBP from baseline: 8.8 ± 9.91 mmHg
  Maximum of mean (±SD) reduction in SBP from baseline: 9.5 ± 16.13 mmHg
  Time of maximum mean DBP reduction: 6 h
  Time of maximum mean SBP reduction: 8 h
SAD 10 mg, D 1 2 h
  Mean DBP: 67.7 mmHg
  Mean SBP: 112.2
SAD 10 mg, D 1 4 h
  Mean DBP: 68.7 mmHg
  Mean SBP: 110.2
SAD 10 mg, D 1 8 h
  Mean DBP: 63 mmHg
  Mean SBP: 109.5
SAD 10 mg, D 2 24 h
  Mean DBP: 71.7 mmHg
  Mean SBP: 118.5
SAD 30 mg (A3)
  Maximum of mean (±SD) reduction in DBP from baseline: 6.8 ± 1.72 mmHg
  Maximum of mean (±SD) reduction in SBP from baseline: 11.7 ± 7.61 mmHg
  Time of maximum mean DBP reduction: 5 h
  Time of maximum mean SBP reduction: 4 h
SAD 30 mg, D 1 2 h
  Mean DBP: 66.2 mmHg
  Mean SBP: 107.5
SAD 30 mg, D 1 4 h
  Mean DBP: 65.2 mmHg
  Mean SBP: 106.0
SAD 30 mg, D 1 8 h
  Mean DBP: 65.2 mmHg
  Mean SBP: 113.8
SAD 30 mg, D 2 24 h
  Mean DBP: 71 mmHg
  Mean SBP: 120.2
SAD 100 mg (A4)
  Maximum of mean (±SD) reduction in DBP from baseline: 9.7 ± 8.64 mmHg
  Maximum of mean (±SD) reduction in SBP from baseline: 15.5 ± 11.59 mmHg
  Time of maximum mean DBP reduction: 5 h
  Time of maximum mean SBP reduction: 2 h
SAD 100 mg, D 1 2 h
  Mean DBP: 59 mmHg
  Mean SBP: 101.0
SAD 100 mg, D 1 4 h
  Mean DBP: 58.7 mmHg
  Mean SBP: 101.3
SAD 100 mg, D 1 8 h
  Mean DBP: 56.3 mmHg
  Mean SBP: 105.0
SAD 100 mg, D 2 24 h
  Mean DBP: 66 mmHg
  Mean SBP: 114.2
SAD 150 mg (A5)
  Maximum of mean (±SD) reduction in DBP from baseline: 12.7 ± 5.61 mmHg
  Maximum of mean (±SD) reduction in SBP from baseline: 16.5 ± 8.41 mmHg
  Time of maximum mean DBP reduction: 6 h
  Time of maximum mean SBP reduction: 6 h
SAD 150 mg, D 1 2 h
  Mean DBP: 58.2 mmHg
  Mean SBP: 105.0
SAD 150 mg, D 1 4 h
  Mean DBP: 56 mmHg
  Mean SBP: 101.5
SAD 150 mg, D 1 8 h
  Mean DBP: 57.8 mmHg
  Mean SBP: 107.2
SAD 150 mg, D 2 24 h
  Mean DBP: 66.2 mmHg
  Mean SBP: 114.7
SAD cohorts
  Effect on SBP, DBP and heart rate: decreased SBP and DBP dose dependently, reversibly, and mostly asymptomatically with minimal effect on heart rate
Single and multiple dose oral administration to healthy participants
  Safety and tolerability: generally safe and well tolerated
